In ChEMBL document CHEMBL1149074, “Eusynstyelamide, a highly modified dimer peptide from the ascidian Eusynstyela misakiensis” (J Nat Prod, 1994):

System: HCT-116
Test: Cytotoxicity against human HCT116 cells upto 100 ug/ml after 72 hrs by XTT assay
Type: functional, cell-based

Structure (SMILES): N=C(N)NCCCCNC(=O)C(O)(O)C(c1c[nH]c2cc(Br)ccc12)C(O)(Cc1c[nH]c2cc(Br)ccc12)C(=O)NCCCCNC(=N)N (stereo unspecified)
- Activity: Not toxic
